According to paper PMC11066877, “Development and Characterization of Novel FAP-Targeted Theranostic Pairs: A Bench-to-Bedside Study” (Research, 2023):

Assays:
[1] = microPET/CT imaging, ROI analysis, Panc-02 tumor models; assay type: in vivo, mice; details: C57BL/6, mouse, intravenous, 3 MBq, 4 h p.i.
Protocol: (§1) A human pancreatic cancer cell line BxPC-3 and a murine pancreatic cancer cell Panc-02 were obtained from the American Type Culture Collection. The pancreatic cancer cell line T3M-4 was purchased by MeisenCTCC (Zhejiang, China). BxPC-3 and T3M-4 cell lines were grown in RPMI 1640 medium (Shanghai BasalMedia Technologies Co., LTD.) containing 10% FBS (GE Healthcare, Chicago, IL, USA) and 1% penicillin–streptomycin solution (Invitrogen). To culture the Panc-02 cell line, a medium called Dulbecco’s modified Eagle medium from Shanghai BasalMedia Technologies Co., LTD. was used, which consisted of 10% FBS. The cell line HT-1080 was grown in MEM medium (Shanghai BasalMedia Technologies Co., LTD.) supplemented with 10% FBS, 1% penicillin-streptomycin solution, and 1% nonessential amino acids (NEAA-11140050; Gibco). A human fibrosarcoma cell line was stably transfected with FAP (HT1080-FAP) and cultured, as we previously described. All cell lines were cultured in a humid incubator with 5% CO2 at a temperature of 37 °C. Approval was granted by the Institutional Animal Care and Use Committee (Renji Hospital, School of Medicine, Shanghai Jiao Tong University) for all experimental protocols and procedures related to animal care. Panc-02 cells were implanted by subcutaneous injection of 5 × 10^6 tumor cells suspended in 100 μl PBS and matrigel matrix (Corning) with equal volume into the upper limb flank of C57BL/6 mice (Shanghai Sheng Chang Biotechnology Co., Ltd.). Four- to 6-week-old thymus-free nude mice (GemPharmatech) were subcutaneously inoculated with BxPC-3, T3M-4, HT-1080, and HT1080-FAP cells (5 × 10^6 in 100 μl of PBS mixing with 100 μl matrigel matrix) in the right shoulder. […]
(§2) MicroPET imaging was performed on isoflurane-anesthetized mice injected intravenously via the lateral tail vein with around 3 MBq (2.5 nmol) of the radioligand at certain times. […] The information was analyzed using OsiriX Lite software (Pixmeo SARL) and Inveon Research Workplace (Siemens Preclinical Solutions). […]

[2] = microPET/CT imaging, ROI analysis, HT-1080 tumor models; assay type: in vivo, mice; details: nude (thymus-free), mouse, intravenous, 3 MBq, 4 h p.i.
Protocol: as §1, §2

[3] = microPET/CT imaging, ROI analysis, BxPC-3 tumor models; assay type: in vivo, mice; details: nude (thymus-free), mouse, intravenous, 3 MBq, 4 h p.i.
Protocol: as §1, §2

[4] = Ex vivo biodistribution of 177Lu-labeled radioligands in tumor-free nude mice; details: mouse, intravenous, 1.11 MBq, total radioactivity
Description: After imaging collection and image reconstruction, samples from euthanized experimental mice, including blood and multiple significant organs, were harvested and weighed. The radioactivity in each collected tissue was counted using an automated gamma counter (Wizard 2480, PerkinElmer) and the accumulation of radioactivity in different tissues and organs was quantified and expressed as %ID/g (mean ± SD). [^177Lu]Lu-DOTA-FD1 (~1.11 MBq, n = 3), [^177Lu]Lu-DOTA-FD2 (~1.11 MBq, n = 3), and [^177Lu]Lu-DOTA-FD3 (~1.11 MBq, n = 3) were injected into the tail vein of free nude mice at 6 h, 24 h, and 24 h for ex vivo biodistribution to verify the circulation time of the 3 probes in vivo. Biodistribution data from tumor-bearing mice injected with [^177Lu]Lu-DOTA-FD3 at 45 h (~1.11 MBq, n = 4) and 90 h (~1.11 MBq, n = 3) validated the prolonged enrichment of the probe at the tumor site. At the end of each probe imaging and radioactivity counting study, tumor tissues were fixed in paraformaldehyde tissue fixative. Briefly, sections of 10 μm were cut and stained for H&E following the standard protocols. IHC staining with a FAP antibody (ab227703, Abcam) was performed only on tumor tissues following accepted techniques.

[5] = Stability of 177Lu-labeled radiopharmaceuticals in FBS and PBS; assay type: in vitro ADME; details: 50% FBS and 50% PBS, checked at 2 h and 24 h
Protocol: To perform ^68Ga-labeling, approximately 20 nmol of FD1, FD2, or FD3 was dissolved in 20 μl of dimethyl sulfoxide and 230 μl of sterile deionized water. This mixture was added to 400 μl of ^68GaCl3 solution (containing 37 MBq) in 0.1 M HCl, with pH adjusted to 4.0 using 0.1 M NH4OAC. The mixture was incubated at 100 °C for 10 min without any additional purification steps. For ^177Lu-labeling, high-purity radionuclide ^177LuCl3 in 0.04 M HCl (3.9 GBq in 97 μl) was purchased from ITM (Munich, Germany). ^177LuCl3 solution (555 MBq in 0.04 M HCl) was added to 500 μl of 1M NH4OAC (pH = 5), followed by the addition of 375 nmol of FD1, FD2, or FD3. The solution was shaken at a temperature of 100 °C for a duration of 30 min. Instant thin-layer chromatography (iTLC; Eckert & Ziegler Radiopharma Inc.) was used to evaluate the RCP of the final products. For iTLC, the mobile phase consisted of 1 M NH4OAC and methyl alcohol in a ratio of 1:1. The final solution must be adjusted to pH 7.0 before being injected into the experimental mice via the tail vein. The stability of ^177Lu-labeled radiopharmaceuticals was evaluated in a mixture of 50% FBS and 50% PBS at 2 h and 24 h after preparation. In the process of preparing each [^68Ga]Ga-DOTA-FD1 for clinical imaging, the end product underwent sterilization by passing it through a 0.22-μm Millipore filter.

[6] = test system: HT1080-FAP tumor; experiment: FAP-targeted radioligand therapy in HT1080-FAP tumor models; assay type: in vivo, mice
Protocol: HT1080-FAP tumor models with higher levels of FAP expression were utilized in this study. Tumor-bearing mice were subjected to therapy experiments when the tumor volume reached 50 to 180 mm^3. Tumor models with different tumor volumes were injected with different therapeutic doses. Mice bearing HT1080-FAP tumors of slightly larger tumor volumes were randomly assigned into 4 groups (n = 5 per group): control group and treatment groups with 800 μCi of [^177Lu]Lu-DOTA-FD1, 400 μCi of [^177Lu]Lu-DOTA-FD3, and 600 μCi [^177Lu]Lu-DOTA-FD3. Mice bearing HT1080-FAP tumors of slightly smaller tumor volumes were also divided into 4 groups (n = 6 per group): control group and treatment groups with 200 μCi of [^177Lu]Lu-DOTA-FD1, 200 μCi of [^177Lu]Lu-DOTA-FD2, and 200 μCi of [^177Lu]Lu-DOTA-FD3. Tumor volume and mice body weight were examined daily after a single-dose injection. Weight monitoring is expressed as a percentage of initial weight on the measurement day. Tumor volume was measured as half of the length × width squared times. Mice were euthanized when the tumor volume exceeded 1,500 mm^3, the tumor ruptured, or when it lost more than 20% of its body weight. T3M-4 tumor models with abundant stroma were established to validate the therapeutic efficacy of [^177Lu]Lu-DOTA-FD3. When the tumor volume grew to 100 to 150 mm^3, the mice were randomly divided into 2 groups (n = 7 per group): free ^177Lu treatment group and 500 μCi [^177Lu]Lu-DOTA-FD3 treatment group. Tumor volume and mice body weight were examined every 2 days.

tissue uptake at 4 h [1]	tissue uptake at 4 h [2]	tissue uptake at 4 h [3]	tissue uptake at 6 h ([4]; kidney, 6 h p.i., read-out: radioactivity uptake in kidneys (biodistribution))	stable in FBS and PBS, no significant demetallation [5]	tissue uptake at 24 h ([4]; blood, 24 h p.i., read-out: accumulation in the blood pool (biodistribution))	Structure (SMILES)	tumor volume versus control group ([6]; average tumor volume 180 mm^3 at onset, single dose 800 μCi)	tumor growth at the end of the study ([6]; average tumor volume 50 mm^3 at onset, single dose 200 μCi)	mice that acquired complete response (CR) ([6]; average tumor volume 50 mm^3 at onset, single dose 200 μCi, 6 mice per group)
7.03 ± 1 %ID/g	9.97 ± 0.42 %ID/g	7.07 ± 0.45 %ID/g				CCCCCC(=O)N[C@H]1CSCc2cc(CSCCNC(=O)[C@H](CCCCNC(=O)CCCc3ccc(I)cc3)NC(=O)[C@@H](NC(=O)[C@H](CCSC)NC(=O)CN3CCN(CC(=O)O)CCN(CC(=O)O)CCN(CC(=O)O)CC3)C(C)C)cc(c2)CSC[C@@H](C(=O)O)NC(=O)[C@H](Cc2ccccc2)NC(=O)[C@H](CCC(N)=O)NC(=O)[C@H]([C@@H](C)O)NC(=O)[C@@H]2CCCN2C(=O)[C@@H]2CCCN2C1=O [[^68Ga]Ga-DOTA-FD3, metal not drawn]			
			30.4 ± 3.1 %ID/g	at least 24 h		CCCCCC(=O)N[C@H]1CSCc2cc(CSCCNC(=O)[C@H](CCCCN)NC(=O)[C@@H](NC(=O)[C@H](CCSC)NC(=O)CN3CCN(CC(=O)O)CCN(CC(=O)O)CCN(CC(=O)O)CC3)C(C)C)cc(c2)CSC[C@@H](C(=O)O)NC(=O)[C@H](Cc2ccccc2)NC(=O)[C@H](CCC(N)=O)NC(=O)[C@H]([C@@H](C)O)NC(=O)[C@@H]2CCCN2C(=O)[C@@H]2CCCN2C1=O [[^177Lu]Lu-DOTA-FD1, metal not drawn]	no difference in tumor volume		
				at least 24 h	31.8 ± 2.24 %ID/g	CCCCCC(=O)N[C@H]1CSCc2cc(CSCCNC(=O)[C@H](CCCCNC(=O)CCCc3ccc(I)cc3)NC(=O)CN3CCN(CC(=O)O)CCN(CC(=O)O)CCN(CC(=O)O)CC3)cc(c2)CSC[C@@H](C(=O)O)NC(=O)[C@H](Cc2ccccc2)NC(=O)[C@H](CCC(N)=O)NC(=O)[C@H]([C@@H](C)O)NC(=O)[C@@H]2CCCN2C(=O)[C@@H]2CCCN2C1=O [[^177Lu]Lu-DOTA-FD2, metal not drawn]		substantially inhibited the tumor growth	1 of the 6
